We go through five compounds from patent publication US9206209B2, “Nucleotide analogue, method of synthesis of nucleotide analogue, use of nucleotide analogue, antiviral pro-nucleotide, pharmaceutical composition” (priority 2010, dated 2015).

The subject of data set [1] is CEM-T4 cells. Description: Cytotoxicity determination (MTT test, 7 days). Type of data set: cell-based. As to the method:
(§1) Cytotoxicity and anti-HIV activity of the compounds (XVIa-c) described above were examined in CEM-T4 cells according procedures described below.
(§2) Cytotoxicity determination—CC50 and CC90 parameters—For determination of compounds (XVIa-c) cytotoxicity CEM-T4 and CEM-A were cultured in standard conditions (37° C., 5% CO2) on 96 wells culture plates in media RPMI/FCS 10% (v/v). Experiments were carried out in media contained tested compounds in concentrations of appropriate range. Cultures in neat medium (RPMI, 10% FCS) were used as a control ones. Viability of cells were determined after 7 days using MTT test in which to each well of culture plate were added 10 μL of MTT solution (5 mg/mL) and cultures were incubated 3 hours in temperature 37° C. After centrifugation supernatant was removed and DMSO was added to lyse the cells and to dissolve crystals of farmazan. Measurement of colour intensity was done using a plate reader (λ560 nm).
(§3) Cytotoxicity calculation—reference absorbancy (K) was an average of measurements for five well of culture plate and accounts for 100% CEM-T4 or CEM-A cells viability. In each case absorbancy for cells cultured in media enriched with tested compounds was calculated as average of at least three measurements.
(§4) Cells viability (P) were calculated according to formula:
(§5) [formula] in which P—viability of cells, K—reference absorbancy, A—absorbancy for cells cultured in media enriched with tested compounds, T—absorbancy for neat medium (RPMI/10% FBS). On the basis of calculations graph showing dependence of viability and concentrations of tested compounds values of CC50 and CC90 were determined

For data set [2], the system named is HIV. Description: Anti-HIV activity (inhibition of HIV replication, viral protein p24) in CEM-T4 cells. Type of data set: cell-based. The settings on record: for EC90: 90% inhibition of HIV replication; for SI50: selectivity index, CC50 vs EC50, CEM-T4 cells. On the procedure: as §1
Anti HIV activity (EC50 and EC90)—parameter EC50 is defined as concentration of compounds in which replication of HIV is inhibited by 50% and parameter EC90 is defined as concentration of compounds in which replication of HIV is inhibited by 90%. To determine these parameters CEM-T4 cells were preincubated 24 hours in standard conditions (37° C., 5% CO2) in standard medium [RPMI, FCS 10% (v/v)] enriched with tested compounds in concentrations in range 0.001-20 μM. Incubations were performed with 96 flat bottom wells culture plates. In each well 20000 cells were suspended in solution of tested compound (200 μL). For each concentration four cultures were done. As a reference, media containing AZT in concentration 1.25 μM, 2.5 μM, 5.0 μM, 10.0 μM, 20 μM were used. As a positive control of maximal replication of HIV, culture in neat standard medium [RPMI/FCS 10% (v/v)] was used. After 24 hours of incubation in medium enriched with tested compound and AZT, cells were inoculated with known amount of HIV and cultivation was continued 8 days and after this the amount of viral protein p24 (marker of HIV replication) was measured. Inhibition of HIV replication is presented as percentage of p24 content in culture performed with media containing tested compound and assuming that amount of p24 measured in control correspond 100% of HIV replication. The examinations of each tested substance for each concentration were run in triplicate.

Data set [3] in a line: Cytotoxicity determination (MTT test, 7 days). Type of data set: cell-based. The settings on record: human, CEM-T4 cells. On the procedure: as §1, §2, §3, §4, §5
Background: Formazan colour is commonly taken as a measure of viable cells.

In data set [4] the test system is CEM-T4 cells. The settings on record: cited from earlier work.
Data set [5] deals with HIV. The arrangement: SI50: unit not given beside the values. The following applies: *Estimated in cells CEM-T4; Baba M. et al. 1987; cited from earlier work.
Data set [6] has as its system HIV. On the set-up: SI50: unit not given beside the values. The following applies: **Imbach J-L. et al. 1994; cited from earlier work.

pEC50: −log10 of the molar value. Like-named read-outs stand apart in the source and are kept apart here.

For orientation: CC50 means the concentration giving 50% cytotoxicity. What is called EC90 is the concentration at which the effect reaches the 90% level. In data set [1], `Cc1cn([C@H]2C[C@H](N=[N+]=[N-])[C@@H](COP(=O)(O)Nc3ccncc3)O2)c(=O)[nH]c1=O` [(XVITc)] registered a CC50 greater than 190000 nM and a CC90 greater than 190000 nM. The compound also gave an EC90 in data set [2] (CEM-T4 cells, p24 after 8 days) of 6 nM. Also, the SI50 in data set [2] is reported as >>19000.
As a reminder, the pEC50 is −log10 of the EC50, conventionally taken in molar units. In data set [3], `Cc1cn([C@H]2C[C@H](N=[N+]=[N-])[C@@H](CO)O2)c(=O)[nH]c1=O` [AZT, 3′-azido-3′-deoxythymidine] gave a CC50 at 7 days of 60000 nM. Besides, the pEC50 in data set [2] (Human immunodeficiency virus 1, 192 h, CEM-T4 cells, 50% inhibition of HIV replication, p24 after 8 days) was 8.96. For the same compound, the EC90 in data set [2] (Human immunodeficiency virus 1, 192 h, CEM-T4 cells, p24 after 8 days) stood at 16 nM. Besides, in data set [2], the SI50 stood at 6000.
Take `Nc1ncnc2c1ncn2[C@H]1CC[C@@H](CO)O1` [ddA, 2′,3′-dideoxyadenosine]: in data set [4] (*Estimated in cells CEM-T4, Baba M. et al. 1987), the CC50 is greater than 250000 nM. In data set [5], the pEC50 was 5.60 and the SI50 is >>100*.
On to `OC[C@@H]1CC[C@H](n2cnc3c(O)ncnc32)O1` [ddI, 2′,3′-dideoxyinosine], for which, in data set [6], the pEC50 is 5.96 and the SI50 is on record as >>91**.
As for `O=c1ccn([C@H]2CC[C@@H](CO)O2)c(=O)[nH]1` [ddU, 2′,3′-dideoxyuridine], the CC50 in data set [4] is greater than 250000 nM. Also, in data set [5], the negative-log EC50 (pEC50) was 4.32 and the SI50 is recorded as >5.2*.
